Read-outs that look alike come from different tables or passages of the source.
Columns and labels:
Type in all cases: in vivo
[1] = system: Ipomoea hederacea (IPOHE); assay: Post-emergence efficacy, Method A; settings: read-out: Control of weed species after post-emergence application, IPOHE
[2] = system: Echinochloa crus-galli (ECHCG); assay: Post-emergence efficacy, Method A; settings: read-out: Control of weed species after post-emergence application, ECHCG
[3] = system: Setaria faberi (SETFA); assay: Post-emergence efficacy, Method A; settings: read-out: Control of weed species after post-emergence application, SETFA
[4] = system: Digitaria sanguinalis (DIGSA); assay: Post-emergence efficacy, Method A; settings: read-out: Control of weed species after post-emergence application, DIGSA
[5] = system: Lolium perenne (LOLPE); assay: Post-emergence efficacy, Method A; settings: read-out: Control of weed species after post-emergence application, LOLPE
[6] = system: Eleusine indica (ELEIN); assay: Post-emergence efficacy, Method A; settings: read-out: Control of weed species after post-emergence application, ELEIN
[7] = system: Helianthus annus (HELAN); assay: Post-emergence efficacy, Method B; settings: second set of rows of Table C (evaluated after 7 and 14 days, day not printed)
Protocol: (§1) Seeds of a variety of test species were sown in standard loam based soil in pots. Plants were cultivated from between 21 and 28 days (post-emergence) under controlled conditions in a glasshouse (at 24/16° C., day/night; 14 hours light; 65% humidity) for warm climate species and (at 20/16° C. day/night; 15 hours light; 65% humidity) for cool climate species.
(§2) The plants were sprayed with an aqueous spray solution derived from dissolving the technical active ingredient formula in a small amount of acetone and a special solvent and emulsifier mixture referred to as IF50 (11.12% Emulsogen EL360 TM+44.44% N-methylpyrrolidone+44.44% Dowanol DPM glycol ether), to create a 50 g/l solution which was then diluted to required concentration using 0.5% or 1% Empicol ESC70 (Sodium lauryl ether sulphate)+1% ammonium sulphate as diluent.
(§3) The delivery of the aqueous spray solution was via a laboratory track sprayer which delivered the aqueous spray composition at a rate of 200 litres per hectare, using a flat fan nozzle (Teejet 11002VS) and an application volume of 200 litre/ha (at 2 bar).
(§4) The test plants were then grown in a glasshouse under controlled conditions (at 24/16° C., day/night; 14 hours light; 65% humidity) for warm climate species and (at 20/16° C. day/night; 15 hours light; 65% humidity) for cool climate species and watered twice daily. After 7 and 14 days the test was evaluated (100=total damage to plant; 0=no damage to plant).
(§5) Brassica napus (BRSNN), Solanum turberosum (SOLTU), Glycine Max (GLXMA), and Helianthus annus (HELAN)

[8] = system: Glycine Max (GLXMA); assay: Post-emergence efficacy, Method B
Protocol: as §1, §2, §3, §4, §5

[9] = system: Solanum turberosum (SOLTU); assay: Post-emergence efficacy, Method B
Protocol: as §1, §2, §3, §4, §5

[10] = system: Brassica napus (BRSNN); assay: Post-emergence efficacy, Method B
Protocol: as §1, §2, §3, §4, §5

[11] = system: Chenopodium album (CHEAL); assay: Post-emergence efficacy, Method A; settings: read-out: Control of weed species after post-emergence application, CHEAL
[12] = system: Euphorbia heterophylla (EPHHL); assay: Post-emergence efficacy, Method A; settings: read-out: Control of weed species after post-emergence application, EPHHL
[13] = system: Amaranthus palmeri (AMAPA); assay: Post-emergence efficacy, Method A; settings: read-out: Control of weed species after post-emergence application, AMAPA
[14] = 500 g/Ha, 100=total damage to plant, 0=no damage, evaluated after 7 and 14 days
[15] = 50 g/Ha, first set of rows of Table C (evaluated after 7 and 14 days, day not printed)
[16] = 50 g/Ha, second set of rows of Table C (evaluated after 7 and 14 days, day not printed)
[17] = 150 g/Ha, first set of rows of Table C (evaluated after 7 and 14 days, day not printed)
[18] = 150 g/Ha, second set of rows of Table C (evaluated after 7 and 14 days, day not printed)
[19] = 600 g/Ha, first set of rows of Table C (evaluated after 7 and 14 days, day not printed)
[20] = 600 g/Ha, second set of rows of Table C (evaluated after 7 and 14 days, day not printed)

**Q.** Which results are given for `O=S(=O)([O-])C[n+]1ccc(-c2ncns2)cc1` [Compound A4, [4-(1,2,4-thiadiazol-5-yl)pyridin-1-ium-1-yl]methanesulfonate]?
**A.** pest or weed control at 500 g/ha [1, 14]: 100%; pest or weed control at 500 g/ha [2, 14]: 70%; pest or weed control at 500 g/ha [3, 14]: 80%; pest or weed control at 500 g/ha [4, 14]: 70%; pest or weed control at 500 g/ha [5, 14]: 80%; pest or weed control at 500 g/ha [6, 14]: 80%; Control after post-emergence application, HELAN (100=total damage to plant; 0=no damage to plant) ([7]; 50 g/Ha): 97; Control after post-emergence application, HELAN (100=total damage to plant; 0=no damage to plant) ([7]; 150 g/Ha): 100; Control after post-emergence application, HELAN (100=total damage to plant; 0=no damage to plant) ([7]; 600 g/Ha): 100; Control after post-emergence application, GLXMA (100=total damage to plant; 0=no damage to plant) [8, 15]: 45; Control after post-emergence application, GLXMA (100=total damage to plant; 0=no damage to plant) [8, 16]: 52; Control after post-emergence application, GLXMA (100=total damage to plant; 0=no damage to plant) [8, 17]: 83; Control after post-emergence application, GLXMA (100=total damage to plant; 0=no damage to plant) [8, 18]: 62; Control after post-emergence application, GLXMA (100=total damage to plant; 0=no damage to plant) [8, 19]: 93; Control after post-emergence application, GLXMA (100=total damage to plant; 0=no damage to plant) [8, 20]: 85; Control after post-emergence application, SOLTU (100=total damage to plant; 0=no damage to plant) [9, 15]: 15; Control after post-emergence application, SOLTU (100=total damage to plant; 0=no damage to plant) [9, 16]: 50; Control after post-emergence application, SOLTU (100=total damage to plant; 0=no damage to plant) [9, 17]: 30; Control after post-emergence application, SOLTU (100=total damage to plant; 0=no damage to plant) [9, 18]: 60; Control after post-emergence application, SOLTU (100=total damage to plant; 0=no damage to plant) [9, 19]: 82; Control after post-emergence application, SOLTU (100=total damage to plant; 0=no damage to plant) [9, 20]: 67; Control after post-emergence application, BRSNN (100=total damage to plant; 0=no damage to plant) [10, 15]: 23; Control after post-emergence application, BRSNN (100=total damage to plant; 0=no damage to plant) [10, 16]: 43; Control after post-emergence application, BRSNN (100=total damage to plant; 0=no damage to plant) [10, 17]: 32; Control after post-emergence application, BRSNN (100=total damage to plant; 0=no damage to plant) [10, 18]: 57; Control after post-emergence application, BRSNN (100=total damage to plant; 0=no damage to plant) [10, 19]: 43; Control after post-emergence application, BRSNN (100=total damage to plant; 0=no damage to plant) [10, 20]: 80; pest or weed control at 500 g/ha [11, 14]: 100%; pest or weed control at 500 g/ha [12, 14]: 100%; pest or weed control at 500 g/ha [13, 14]: 100%

**Q.** `OCC[n+]1ccc(-c2nnc(-c3ccccc3)o2)cc1` [Compound A69, 2-[4-(5-phenyl-1,3,4-oxadiazol-2-yl)pyridin-1-ium-1-yl]ethanol 2,2,2-trifluoroacetate] was tested. Which pest or weed control at 500 g/ha [1, 14] did it give?
**A.** 20%

**Q.** What about the pest or weed control at 500 g/ha [2, 14] of the same compound?
**A.** 20%

**Q.** And the pest or weed control at 500 g/ha [3, 14]?
**A.** 10%

**Q.** And the pest or weed control at 500 g/ha [4, 14]?
**A.** 10%

**Q.** What about the pest or weed control at 500 g/ha [5, 14] of the same compound?
**A.** 10%

**Q.** What about the pest or weed control at 500 g/ha [6, 14] of the same compound?
**A.** 30%

**Q.** What about the pest or weed control at 500 g/ha [11, 14] of the same compound?
**A.** 30%

**Q.** What about the pest or weed control at 500 g/ha [12, 14] of the same compound?
**A.** 20%

**Q.** And the pest or weed control at 500 g/ha [13, 14]?
**A.** 20%

**Q.** `CCOP(C)(=O)C[n+]1ccc(-c2ncns2)cc1` (stereo not drawn) [Compound A47, 5-[1-[[ethoxy(methyl)phosphoryl]methyl]pyridin-1-ium-4-yl]-1,2,4-thiadiazole trifluoromethanesulfonate] was tested. Which pest or weed control at 500 g/ha [1] did it give?
**A.** 10%

**Q.** And the pest or weed control at 500 g/ha [2]?
**A.** 10%

**Q.** What about the pest or weed control at 500 g/ha [3] of the same compound?
**A.** 10%

**Q.** What about the pest or weed control at 500 g/ha [4] of the same compound?
**A.** 10%

**Q.** What about the pest or weed control at 500 g/ha [5] of the same compound?
**A.** 0%

**Q.** What about the pest or weed control at 500 g/ha [6] of the same compound?
**A.** 10%

**Q.** What about the pest or weed control at 500 g/ha [11] of the same compound?
**A.** 60%

**Q.** And the pest or weed control at 500 g/ha [12]?
**A.** 10%

**Q.** And the pest or weed control at 500 g/ha [13]?
**A.** 60%

**Q.** How did the pest or weed control at 500 g/ha [1, 14] turn out when `O=S(=O)([O-])CCC[n+]1ccc(-c2nnco2)cc1` [Compound A17] was run?
**A.** 20%

**Q.** What about the pest or weed control at 500 g/ha [2, 14] of the same compound?
**A.** 30%

**Q.** And the pest or weed control at 500 g/ha [3, 14]?
**A.** 40%

**Q.** What about the pest or weed control at 500 g/ha [4, 14] of the same compound?
**A.** 40%

**Q.** What about the pest or weed control at 500 g/ha [5, 14] of the same compound?
**A.** 0%

**Q.** What about the pest or weed control at 500 g/ha [6, 14] of the same compound?
**A.** 10%

**Q.** What about the pest or weed control at 500 g/ha [11, 14] of the same compound?
**A.** 70%

**Q.** And the pest or weed control at 500 g/ha [12, 14]?
**A.** 50%

**Q.** What about the pest or weed control at 500 g/ha [13, 14] of the same compound?
**A.** 70%

**Q.** Which results are given for `O=C(O)C[n+]1ccc(-c2nc(O)ns2)cc1` [Compound A98]?
**A.** pest or weed control at 500 g/ha [1, 14]: 10%; pest or weed control at 500 g/ha [2, 14]: 40%; pest or weed control at 500 g/ha [3, 14]: 20%; pest or weed control at 500 g/ha [4, 14]: 70%; pest or weed control at 500 g/ha [5, 14]: 0%; pest or weed control at 500 g/ha [6, 14]: 10%; pest or weed control at 500 g/ha [11, 14]: 40%; pest or weed control at 500 g/ha [12, 14]: 30%; pest or weed control at 500 g/ha [13, 14]: 50%
